Measured values as given in publication PMC12280925, “Structure-based discovery of positive allosteric modulators of the A1 adenosine receptor” (Proceedings of the National Academy of Sciences of the …, 2025).
Residue numbers refer to the chain shown, from its start.

Key:
A1R (A1R-FlpInCHO cells) [1] = target: T1, A1R (A1R-FlpInCHO cells) (Homo sapiens, UniProt P30542); test: Inhibition of forskolin-stimulated cAMP accumulation: NECA potency ± compound and compound alone; format: cell-based
T1 sequence (P30542 1-326): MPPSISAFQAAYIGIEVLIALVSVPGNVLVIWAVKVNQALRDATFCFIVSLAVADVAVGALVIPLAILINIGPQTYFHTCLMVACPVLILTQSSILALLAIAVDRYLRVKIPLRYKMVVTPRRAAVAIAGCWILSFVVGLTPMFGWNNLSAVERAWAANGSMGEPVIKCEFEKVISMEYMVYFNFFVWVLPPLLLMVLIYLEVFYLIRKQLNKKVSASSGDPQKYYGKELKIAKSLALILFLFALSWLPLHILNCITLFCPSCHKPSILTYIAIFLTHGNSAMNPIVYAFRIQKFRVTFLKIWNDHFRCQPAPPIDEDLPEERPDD
Protocol: (§1) FlpInCHO cell lines and cortical neuron cells were seeded into transparent 96-well plates at 20,000 cells/well and incubated for 16 to 20 h in a humidified incubator at 37 °C in 5% CO2. […] Compounds were added at either a single concentration (10 or 30 μM) or a concentration range for full interaction studies (3 to 30 μM), and plates were incubated for 30 to 60 min at 37 °C in a humidified chamber. […] After 30 min incubation at 37 °C, the reaction was terminated by rapid removal of buffer and the addition of 50 μL/well cold ethanol. […] Agonist concentration–response curves were normalized to the response mediated by 3 µM forskolin […].
Response=Basal+Emax-Basal×A/EC50+A,

[2] = target: T2, A1R allosteric site (A1R-FlpINCHO cells, wild type) (Homo sapiens, UniProt P30542); test: Whole-cell [3H]DPCPX interaction binding with NECA, allosteric ternary complex model
T2 sequence (P30542 1-326): T1 sequence (P30542 1-326)
Protocol: [^3H]DPCPX (8-cyclopentyl-1,3-dipropylxanthine, [dipropyl-2,3-^3H(N)]) whole-cell binding assays were performed on FlpINCHO cells stably expressing either WT (nontagged or 3xHA-tagged) or mutant 3xHA-A1R. Cells were seeded into a transparent 96-well plate at 40,000 cells/well in DMEM containing 10% FBS. Following 8 h incubation in a humidified environment at 37 °C in 5% CO2, cells were washed and maintained in serum-free DMEM for approximately 18 h at 37 °C in 5% CO2. […] Assays were terminated by washing twice with 100 μL/well cold phosphate-buffered saline, followed by the addition of 100 μL OptiPhase Supermix™ scintillation cocktail and bound radioactivity measured using a MicroBeta^2 ™ plate counter (PerkinElmer).
Equilibrium binding interaction experiments were fitted to the following allosteric ternary complex model.[3] Y=BmaxA/A+KAKB/αAB+KB1+[I]/KI+[B]/KB+αII[B]/KIKB,
A cooperativity factor α > 1 describes positive cooperativity; a value 0 < α < 1 describes negative cooperativity, and a value of α = 1 describes neutral cooperativity.

A1R (A1R-FlpInCHO cells) [3] = target: T1, A1R (A1R-FlpInCHO cells); test: NECA/allosteric ligand interaction in cAMP accumulation, operational model of allosterism; format: cell-based
Protocol: as §1
[5] E=EmτAAKB+αβ[B]+τB[B]KA^n/AKB+KAKB+[B]KA+α[A][B]^n+τAAKB+αβ[B]+τB[B]KA^n
Orthosteric agonist and allosteric ligand affinity were constrained to values determined from radioligand binding.

A1R S246^6.47A mutant = target: T3, A1R S246^6.47A mutant (Homo sapiens, UniProt P30542, S246A); parameters: method as in PMID 34497422; settings: cited from earlier work
T3 construct: expressed in transfected cells; host or cells: FlpInCHO cells, stably transfected
T3 sequence (P30542 1-326 S246A): T1 sequence (P30542 1-326) with S246A

A1R G279^7.44A mutant = target: T4, A1R G279^7.44A mutant (Homo sapiens, UniProt P30542, G279A); parameters: method as in PMID 34497422; settings: cited from earlier work
T4 construct: expressed in transfected cells; host or cells: FlpInCHO cells, stably transfected
T4 sequence (P30542 1-326 G279A): T1 sequence (P30542 1-326) with G279A

[4] = parameters: method as in PMID 34497422; settings: in vitro liver microsome assays; cited from earlier work
[5] = parameters: method as in PMID 34497422; settings: rat model; cited from earlier work

In the case of `Nc1scc(-c2cc(C(F)(F)F)cc(C(F)(F)F)c2)c1C(=O)c1ccc(Cl)cc1` [compound 1, reference compound], the “inhibition of 3 μM forskolin-stimulated cAMP accumulation” value (A1R (A1R-FlpInCHO cells) [1]; 30 μM compound in the absence of NECA, for NECA: maximal response) is reported as 83%, the “functional response relative to NECA maximal response” value (A1R (A1R-FlpInCHO cells) [1]; 30 μM, absence of NECA) is reported as “approximately 80%” and the “allosteric ligand affinity (pKB)” value ([2]; allosteric ternary complex model, n = 4) is reported as 5.18 ± 0.21. For the same compound, the “binding cooperativity with NECA (logα)” value ([2]; allosteric ternary complex model, orthosteric agonist NECA) was 2.09 ± 0.22, the “positive cooperativity between PAM and NECA” value ([2]; approximate, from logα) was “approximately 100 fold” and the Kd ([2]; approximate, from pKB, read-out: affinity for the A1R allosteric site) was ~8 µM. For the same compound, the “allosteric ligand efficacy (logτB)” value (A1R (A1R-FlpInCHO cells) [3]; allosteric agonism in cAMP) was 0.56 ± 0.06, the “functional cooperativity with NECA (logαβ)” value (A1R (A1R-FlpInCHO cells) [3]; cAMP) was 0.78 ± 0.15 and the “effect of binding site mutation on affinity” value (A1R S246^6.47A mutant) was “small (four- to seven-fold) but significant reduction”. The “effect of binding site mutation on affinity” value (A1R G279^7.44A mutant) was “small (four- to seven-fold) but significant reduction”, the “metabolism in liver microsomes” value [4] was “rapid metabolism” and the “in vivo analgesic efficacy” value [5] was “in vivo analgesic efficacy”.
